Reference: publication PMC9436958, “The synthesis of novel thioderivative chalcones and their influence on NF-κB, STAT3 and NRF2 signaling pathways in colorectal cancer cells” (Scientific Reports, 2022)
Like-named read-outs stand apart in the source and are kept apart here.

Assays:
[1] = tested on: COX-2; parameters: method as in PMID 34120541; conditions: PANC-1 pancreatic cancer cells; cited from earlier work
[2] = tested on: NF-κB; parameters: method as in PMID 34120541; conditions: PANC-1 pancreatic cancer cells; cited from earlier work
[3] = tested on: Nrf2 signaling pathway; parameters: method as in PMID 23085367, PMID 34120541; conditions: cited from earlier work
[4] = tested on: NF-κB p65; assay: Western blot, NF-κB p65 protein level; format: cell-based; conditions: BAY 11-7082 5 µM; both tested cell lines
Procedure: (§1) Cytosolic and nuclear extracts were prepared using a Nuclear/Cytosol Fractionation Kit (BioVision Research, USA). Cytosolic extracts (for NF-κBp65, NF-κBp50, COX-2, iNOS, STAT3, c-Myc, Bcl-xl, Nrf2, SOD, GSTP, EGFR, Akt, p-Akt, Keap1, IKKα/β and β-actin) or nuclear extracts (for NF-κBp65, NF-κBp50, STAT3, p-STAT3, Nrf2, p-Nrf2 and lamin) were separated on 7.5%, 10% or 12% SDS–PAGE slab gels. Then, the proteins were transferred to a nitrocellulose Immobilon-P membrane. After blocking for 2 h with 10% skimmed milk, proteins were incubated with primary antibodies against NF-κBp65, NF-κBp50, COX-2, iNOS, STAT3, p-STAT3, c-Myc, Bcl-xl, Nrf2, p-Nrf2, SOD, GSTP, EGFR, Akt, p-Akt, Keap1, IKKα/β, β-actin, and lamin. Alkaline phosphatase (AP)-labeled anti-rabbit IgG, anti-goat IgG, and anti-mouse IgG secondary antibodies (Bio-Rad Laboratories, USA), as well as horseradish peroxidase (HRP)-conjugated anti-mouse IgG (Boster Bio, USA) secondary antibodies were used in the staining reaction. Bands were visualized by the AP Conjugate Substrate Kit NBT/BCIP or the chemiluminescent HRP substrate of the Clarity ECL Kit (Bio–Rad Laboratories, USA). The amount of immunoreactive product in each lane was determined using a ChemiDoc Imaging System (Bio–Rad Laboratories, USA). Values were calculated as relative absorbance units (RQ) per mg of protein and expressed as a percentage of the control.

[5] = tested on: NF-κB p50; assay: Western blot, NF-κB p50 protein level; format: cell-based; conditions: BAY 11-7082 5 µM; both tested cell lines
Procedure: as §1

[6] = tested on: DLD-1 cells; assay: Apoptosis, Annexin V / 7-AAD flow cytometry, DLD-1; format: cell-based; conditions: 48 h, mainly early and total apoptotic populations enriched
Procedure: (§2) Apoptosis was assessed by the detection of phosphatidylserine externalization based on Annexin V staining combined with fluorescent DNA intercalator 7-Aminoactinomycin D (7-AAD) what allowed for the discrimination between early and late apoptotic cells. The analysis was performed by flow cytometry using the Muse Annexin V & Dead Cell Kit (Luminex, USA) and the Muse Cell Analyzer (Merck, Germany), according to the manufacturer’s protocol. Cells were seeded (2 × 10^5 cells per well) in six-well plates and on the following day the analyzed compounds were added. Topotecan (Sigma-Aldrich, USA) was used as a positive control of apoptosis induction. After 48 h cells were collected by trypsinization, stained and after 20 min incubation at room temperature in the dark analyzed by flow cytometry. Three independent experiments were performed. Data were analyzed by Muse 1.5 Analysis Software (Merck, Germany).

[7] = tested on: COX-2; assay: COX-2 expression (qRT-PCR mRNA, Western blot protein); format: cell-based; conditions: BAY 11-7082 5 µM; both tested cell lines
Procedure: as §1
Total RNA from cells was isolated with the GeneMatrix Universal DNA/RNA/Protein Purification Kit (EurX, Poland). For the qRT-PCR analyses, the Maxima SYBR Green I/ROX qPCR Master Mix (2×) (Thermo Fisher Scientific, USA) and the thermal cycler LightCycler (Roche, Germany) were used. The protocol started with 5 min of enzyme activation at 95 °C, followed by 40–50 cycles at 95 °C for 15 s, 56 °C for 20 s, 72 °C for 40 s, and final elongation at 72 °C for 5 min. Melting curve analysis was used for amplicon verification. The expression levels of TATA-box-binding protein (TBP) and porphobilinogen deaminase (PBGD) were used to normalize the data. The Pfaffl comparative method was used to calculate fold change. Primers were designed using Beacon Designer software (the sequences of primers used to analyze genes are listed in Table 2 of the supplementary materials).

[8] = tested on: DLD-1 cells; assay: Cell cycle distribution, PI staining, flow cytometry, DLD-1; format: cell-based; conditions: 48 h, BAY 11-7082 5 µM, 5 in higher (doubled) concentration
Procedure: (§3) The analysis of the cell cycle distribution was performed by propidium iodide (PI) staining. The addition of RNase A improved the specificity of PI binding to DNA. The Muse Cell Cycle Kit (Luminex, USA) and flow cytometric detection were performed with the Muse Cell Analyzer (Merck, Germany), according to the manufacturer’s protocol. Briefly, cells were seeded (2 × 10^5 cells per well) in 6-well plates and on the following day the analyzed compounds were added. Topotecan (Sigma-Aldrich, USA) was used as a positive control of cell cycle arrest. After 48 h cells were collected by trypsinization, fixed in cold 70% ethanol and stored at –20 °C. Then, fixed cells were collected and stained with PI, subjected to 30 min incubation at room temperature in the dark and analyzed by flow cytometry. Three independent experiments were performed. Data were analyzed by Muse 1.5 Analysis Software (Merck, Germany).

[9] = tested on: HCT116 cells; assay: Apoptosis, Annexin V / 7-AAD flow cytometry, HCT116; format: cell-based; conditions: 48 h, increase of early, late and total apoptosis
Procedure: as §2

[10] = tested on: DLD-1 cells; assay: Wound healing assay (cell migration); format: cell-based; conditions: 24 h, 4 at standard concentration (1 μM), BAY 11-7082 5 µM
Procedure: Cell migration was assessed by the wound healing assay. DLD-1 cells were seeded into 24-well plates (5 × 10^5 cells per well) and were grown overnight to reach confluency. A scratch was performed using a 10 μl tip, wells were rinsed twice with PBS buffer to remove detached cells, and fresh medium with reduced FBS concentration (0.5%) containing the tested compounds was added. Subsequently, representative microscopic photographs of scratch areas were taken by JuLI FL microscope (NanoEntek, South Korea) direct after the addition of compounds and after 24 h. Area covered by cells (%) was assessed using JuLI FL software and the difference in the coverage of the growth area by DLD-1 cells between 0 and 24 h time points was calculated for each well. The experiment was repeated three times. The relative effect of the tested compounds on cell migration was calculated by comparing the difference in cell coverage area between compound-treated cells and DMSO-vehicle control (tested compound [area 24 h − area 0 h] / DMSO-vehicle control [area 24 h − area 0 h]).

[11] = tested on: HCT116 cells; assay: Cell cycle distribution, PI staining, flow cytometry, HCT116; format: cell-based; conditions: 48 h, BAY 11-7082 5 µM, 4 and 5 in higher (doubled) concentrations
Procedure: as §3

Row | SMILES | expression of COX-2 [1] | activation of NF-κB [2] | binding of both NF-κB subunits to DNA [2] | activation of the Nrf2 signaling pathway ([3]; HepG2 hepatoma cells) | activation of the Nrf2 signaling pathway ([3]; PANC-1 pancreatic cancer cells) | level of NF-κBp65, compared with the studied chalcones [4] | level of NF-κBp50, compared with the studied chalcones [5] | induction of apoptosis [6] | level of COX-2, compared with the studied chalcones [7] | cell cycle distribution (in words) [8] | induction of apoptosis [9] | reduction of cell migration rate (wound healing) vs DMSO-treated cells [10] | cell cycle distribution (in words) [11]
1 | COc1cc(O)c(CC=C(C)C)c(O)c1C(=O)/C=C/c1ccc(O)cc1 [xanthohumol] | decreased | decreased the activation of NF-κB | decreased | significantly increased activation | significantly increased activation |  |  |  |  |  |  |  | 
2 | Cc1ccc(S(=O)(=O)/C=C/C#N)cc1 [BAY 11-7082, reference compound] |  |  |  |  |  | more potent inhibition | more potent inhibition | able to induce apoptosis | more potent inhibition | decrease of G1/G0 cell cycle phase | able to induce apoptosis | at the same level as DMSO-treated cells | decreased G1/G0 phases; increased S and G2/M phases
